Here are results for two sequences from patent US6514942B1, “Methods and compositions for stimulating T-lymphocytes” (The Board of Regents, The University of Texas System, priority 1995, dated 2003).

The subject of experiment [1] is OVA-1, HER-2high. The experiment is described as follows: Lysis of peptide pre-pulsed autologous tumor by CTL-TAL (HLA-A2- system). To be noted: OVA-1 pre-pulsed with peptide. Format: cell-based, human. Here is the method: Tumor cells and fibroblasts were labeled with 200 μCi of ^51Cr (Na^51CrO4; Amersham, Arlington Heights, Ill.) for 90 min at 37° C. (Ioannides et al., 1991). Lymphoblastoid cells and HLA-A2 transfectants were labeled overnight in RPMI-FCS, then washed three times and incubated with effector cells in RPMI-FCS in an incubator with 5%. CO2 (Bednarek et al., 1991; Gammon et al., 1992). When peptide recognition was determined, targets were incubated with 25 μM of peptides overnight during ^51Cr labeling or with 10 μM peptide for 2 h at 37° C. in RPMI-FCS then washed three times before being incubated with effector cells. Separate controls for spontaneous and total lysis were made for each peptide-pulsed target (Ioannides et al., 1991; Bednarek et al., 1991; Gammon et al., 1992). After 4-5 h, 100 μl of supernatant was collected and counted. To determine maximum lysis in 20-h assays, plates were left undisturbed in the incubator and the supernatant was collected after overnight incubation. For cold target inhibition studies, C1R:A2 cells were preincubated with HER-2 or control peptides overnight, then washed and admixed with ^51Cr-labeled targets at 2:1 and 6:1 (cold:hot targets) ratios. Percentage lysis was calculated from the formula: 100×[(E−S)/(T−S)], where E is experimental release, S is release in the absence of CTL, and T is release in 2 M HCl.
To address whether these peptides interfere with tumor lysis by autologous tumor reactive CTL-TAL in HLA-A2^− systems, the lysis of OVA-1, HER-2^high (HLA-A1, 24, B8, 35, Cw4) and OVA-31, HER-2^high was determined by pre-pulsing with either C43 or as a control, C44 peptide (VS→II). Target lysis by CTL-1 was: OVA-1 (68%), K562 (18%), OVA-1 plus C43 (37%), and OVA-1 plus C44 (51%). […] However, C43 and C44 had no effect on lysis of OVA-31 by CTL-31.

Experiment [2] addresses T1, HLA-A2 of T2 cells (Homo sapiens, UniProt P04439, D140Y/D185E/D98H/E176V/E277Q/G131W/G231S/I119V/I121R/I166T/I218V/L300P/L318F/N151K/N90K/P208A/P217A/Q86G/Q94H/R138H/R169H/T345S).
T1 construct: cell surface expression of HLA-A2 is lower (30-40%) than in normal LBL lines transfected with HLA-A2; endogenous in cells; host or cells: T2 (transport deletion mutant) human lymphoblastoid cells, obtained from Dr. Peter Creswell
The experiment is described as follows: Reactivity of BB7.2 mAb with T2 cells after culture with peptide (immunofluorescence, FL1). The experiment is classed as cell-based. To be noted: peptide 50 μg/ml, overnight culture. Here is the method: FIG. 5B. Effects of HER-2 peptides on reactivity of BB7.2 mAb with T2 cells. Studies were performed as described in the legend to FIG. 5A.
mAbs to CD3 (OKT3-FITC), CD4 (OKT4-FITC) and CD8 (OKT8-FITC) were obtained from Ortho Diagnostic (Ortho, Raritan, N.J.), mAb W6/32 (anti-HLA, -A, -B, -C) from Dako (Dako-Dakopatts, Denmark); HLA-A2 reacting mAb BB7.2 and MA2.1 from ATCC. Immunofluorescence studies were performed as described in Example 1.
To determine whether these peptides and longer analogs affect HLA-A2 conformation as an indication of HLA-A2 binding, the effects of HER-2 peptides on the reactivity of conformationally dependent mAb MA2.1 and BB.7.2 were examined with HLA-A2 of T2 cells. The human cell line T2 has a defect affecting endogenous peptide loading of MHC class I molecules. As a consequence, cell surface expression of HLA-A2 is lower (30-40%) than in normal LBL lines transfected with HLA-A2 (e.g., C1R) but the reactivity of MA2.1 and BB.7.2 mAb is increased when certain HLA-A2 binding peptides are added to the culture medium (Anderson et al., 1993). Although most human MHC class I molecules cannot be induced at the low temperatures used for their murine counterparts because of fundamental structural differences between human and mouse class I (Anderson et al., 1993), the fact that they express few endogenous (mainly signal) peptides (Zweerink et al., 1993) increases the sensitivity of detection of peptide-HLA-A2 interaction.

As for “RFRELVSEFSRMAR [Peptide C43, HER-2:968-981 14mer peptide]”, in experiment [1], the “Target lysis by CTL-1” value worked out at 37% and the “inhibition of lysis of OVA-1 by CTL-1” value is on record as 45%. “ELVSEFSRV [Peptide C84, HER-2:971-979 analog, Met(P9) substituted by Val]”: the “FL1 of T2 cells stained with BB7.2 mAb” value in experiment [2] is listed as “even higher increase in FL1”.
